Test results as given in patent publication US3957987A, “Compositions containing a carbonamidoquinoxaline-di-N-oxide and method of using same” (Bayer Aktiengesellschaft, priority 1971, dated 1976).
≈ marks a conversion by molar mass, not a printed value.

Legend:
Format in all cases: cell-based
Klebsiella 63 = test: Minimum inhibitory concentration in vitro, Klebsiella 63
From the text: (§1) As representative of the spectrum of antimicrobial activity for these compounds, the following representative minimum inhibitory concentrations shown on Tables A, B and C can be noted:
(§2) Minimum Inhibitory Concentrations In Vitro, in μg/ml of Medium

Klebsiella 8085 = test: Minimum inhibitory concentration in vitro, Klebsiella 8085
From the text: as §1, §2

[1] = system: Staphylococcus aureus 133; test: Minimum inhibitory concentration in vitro, Staphylococcus aureus 133
From the text: as §1, §2

Streptococcus pyogenes = test: Minimum inhibitory concentration in vitro, Streptococcus pyogenes
From the text: as §1, §2

Escherichia coli C 165 = test: Minimum inhibitory concentration in vitro, Escherichia coli C 165; details: C165
From the text: as §1, §2

Clostridium tetani = test: microbe, parasite or virus in culture; details: read-out: minimum inhibitory concentration
Clostridium botulinum = test: microbe, parasite or virus in culture; details: read-out: minimum inhibitory concentration
Mycoplasma MS = test: Minimum inhibitory concentration, Mycoplasma MS
From the text: (§3) As representative of the spectrum of antimicrobial activity for these compounds, the following representative minimum inhibitory concentrations shown on Tables A, B and C can be noted: […]

Mycoplasma S6 = test: Minimum inhibitory concentration, Mycoplasma S6
Mycoplasma gran = test: Minimum inhibitory concentration, Mycoplasma gran
[2] = system: Pasteurella multocida ATCC; test: Minimum inhibitory concentration, Pasteurella multocida ATCC
[3] = system: Alcaligenes faecalis ATCC; test: Minimum inhibitory concentration, Alcaligenes faecalis ATCC
[4] = system: Bordetella bronchiseptica; test: Minimum inhibitory concentration, Bordetella bronchiseptica
Aeromonas liquefaciens = test: Minimum inhibitory concentration, Aeromonas liquefaciens; details: Aeromonas hydrophila
Mycobacterium species = test: Minimum inhibitory concentration, Mycobacterium species
From the text: as §3

Escherichia coli A 261 = test: Minimum inhibitory concentration in vitro, Escherichia coli A 261; details: A261
From the text: as §1, §2

SMILES	MIC (Klebsiella 63) [µg/mL]	MIC (Klebsiella 8085) [µg/mL]	MIC [1] [µg/mL]	MIC (Streptococcus pyogenes) [µg/mL]	MIC (Escherichia coli C 165) [µg/mL]	MIC (Clostridium tetani) [µg/mL]	MIC (Clostridium botulinum) [µg/mL]	MIC (Mycoplasma MS) [µg/mL]	MIC (Mycoplasma S6) [µg/mL]	MIC (Mycoplasma gran) [µg/mL]	MIC [2] [µg/mL]	MIC [3] [µg/mL]	MIC [4] [µg/mL]	MIC (Aeromonas liquefaciens) [µg/mL]	MIC (Mycobacterium species) [µg/mL]	MIC (Escherichia coli A 261) [µg/mL]
COC(=O)NN=Cc1c(C(=O)N2CCCC2)[n+]([O-])c2ccccc2[n+]1[O-] [Example 12]	100 (≈ 278 µM)	100 (≈ 278 µM)	10 (≈ 27.8 µM)	100 (≈ 278 µM)	100 (≈ 278 µM)	10 (≈ 27.8 µM)	10 (≈ 27.8 µM)	100 (≈ 278 µM)	10 (≈ 27.8 µM)	10 (≈ 27.8 µM)	1 (≈ 2.78 µM)	100 (≈ 278 µM)	100 (≈ 278 µM)	100 (≈ 278 µM)	100 (≈ 278 µM)	–
CCN(CC)C(=O)c1c(C=NNC(=O)OC)[n+]([O-])c2ccccc2[n+]1[O-] [Example 11]	100 (≈ 277 µM)	100 (≈ 277 µM)	100 (≈ 277 µM)	100 (≈ 277 µM)	–	10 (≈ 27.7 µM)	10 (≈ 27.7 µM)	100 (≈ 277 µM)	10 (≈ 27.7 µM)	10 (≈ 27.7 µM)	1 (≈ 2.77 µM)	100 (≈ 277 µM)	100 (≈ 277 µM)	100 (≈ 277 µM)	100 (≈ 277 µM)	–
COC(=O)NN=Cc1c(C(=O)NC2CCCCC2)[n+]([O-])c2ccccc2[n+]1[O-] [Example 16]	–	100 (≈ 258 µM)	100 (≈ 258 µM)	100 (≈ 258 µM)	–	100 (≈ 258 µM)	100 (≈ 258 µM)	–	100 (≈ 258 µM)	100 (≈ 258 µM)	100 (≈ 258 µM)	100 (≈ 258 µM)	100 (≈ 258 µM)	100 (≈ 258 µM)	–	–
COC(=O)NN=Cc1c(C(=O)NC(C)C)[n+]([O-])c2ccccc2[n+]1[O-] [Example 17]	100 (≈ 288 µM)	10 (≈ 28.8 µM)	100 (≈ 288 µM)	100 (≈ 288 µM)	100 (≈ 288 µM)	100 (≈ 288 µM)	100 (≈ 288 µM)	–	100 (≈ 288 µM)	100 (≈ 288 µM)	100 (≈ 288 µM)	100 (≈ 288 µM)	100 (≈ 288 µM)	100 (≈ 288 µM)	100 (≈ 288 µM)	100 (≈ 288 µM)
O=C(NCCO)c1c(C=NNC(=O)N2CCOCC2)[n+]([O-])c2ccccc2[n+]1[O-] [Example 29]	–	–	–	–	–	100 (≈ 247 µM)	100 (≈ 247 µM)	–	100 (≈ 247 µM)	100 (≈ 247 µM)	100 (≈ 247 µM)	100 (≈ 247 µM)	100 (≈ 247 µM)	100 (≈ 247 µM)	40 (≈ 98.9 µM)	–
COC(=O)NN=Cc1c(C(=O)N2CCOCC2)[n+]([O-])c2ccccc2[n+]1[O-] [Example 21]	–	–	–	–	–	100 (≈ 266 µM)	1 (≈ 2.66 µM)	10 (≈ 26.6 µM)	1 (≈ 2.66 µM)	0.1 (≈ 0.266 µM)	10 (≈ 26.6 µM)	100 (≈ 266 µM)	100 (≈ 266 µM)	1 (≈ 2.66 µM)	100 (≈ 266 µM)	–
CCCNC(=O)c1c(C=NNC(=O)OC)[n+]([O-])c2ccccc2[n+]1[O-] [Example 15]	100 (≈ 288 µM)	100 (≈ 288 µM)	100 (≈ 288 µM)	10 (≈ 28.8 µM)	100 (≈ 288 µM)	100 (≈ 288 µM)	100 (≈ 288 µM)	–	100 (≈ 288 µM)	100 (≈ 288 µM)	100 (≈ 288 µM)	100 (≈ 288 µM)	100 (≈ 288 µM)	100 (≈ 288 µM)	100 (≈ 288 µM)	100 (≈ 288 µM)
CC(C)NC(=O)c1c(C=NO)[n+]([O-])c2ccccc2[n+]1[O-] [Example 24]	–	–	–	–	–	100 (≈ 344 µM)	1 (≈ 3.44 µM)	100 (≈ 344 µM)	100 (≈ 344 µM)	1 (≈ 3.44 µM)	100 (≈ 344 µM)	100 (≈ 344 µM)	100 (≈ 344 µM)	100 (≈ 344 µM)	100 (≈ 344 µM)	–
COC(=O)NN=Cc1c(C(=O)NCCO)[n+]([O-])c2ccccc2[n+]1[O-] [Example 14]	–	100 (≈ 286 µM)	100 (≈ 286 µM)	100 (≈ 286 µM)	–	100 (≈ 286 µM)	100 (≈ 286 µM)	–	100 (≈ 286 µM)	100 (≈ 286 µM)	100 (≈ 286 µM)	100 (≈ 286 µM)	100 (≈ 286 µM)	100 (≈ 286 µM)	–	–
